According to patent US20230027072A1, “IMPROVED METHODS, KITS, COMPOSITIONS AND DOSING REGIMENS FOR THE USE OF HETEROCYCLIC INHIBITORS OF ERK1 AND ERK2” (Asana Biosciences, LLC, priority 2019, published 2023):
pIC50: −log10 of the molar value.

Columns and labels:
[1] = target: T1, ERK2 (Homo sapiens, UniProt P28482); assay: ERK2 HTRF (biochemical) assay
T1 construct: purchased Jubilant Biosys
Experimental: (§1) ERK1 and ERK2 HTRF (Biochemical) Assays
(§2) The assays described below employed a homogeneous time resolved fluorescence (HTRF) technique. The compounds were serially diluted by half-log with concentrations ranging from 0.0005 to 10 uM in the assay buffer (50 mM Tris pH-7.5, 1 mM EGTA, 2 mM DTT, 10 mM MgCl2, 0.1% Tween-20) and 20 uL of substrate-ATP mix [1 uM Biotin—LC-Myelin Basic Protein (MBP) derivatized Peptide (Anaspec)-24 uM ATP (Sigma)] was added to each well of the assay plate. Then 10 uL of enzyme mix [25 nM ERK1 or ERK2 (Jubilant Biosys) in assay buffer] was added to each well. The plate was incubated at room temperature for 60 min with shaking. The HTRF mix [625 nM LANCE® Ultra Europium-anti-phospho-MBP (Perkin Elmer) and 2 nM Phycolink® Streptavidin-Allophycocyanin (SA-APC) (Prozyme) in HTRF buffer (50 mM Tris-HCl pH-7.5, 100 mM NaCl, 0.1% BSA, 0.05% Tween20, 0.5 mM EDTA)] was prepared and 75 uL of this mix was added to the HTRF plate. After incubation for 60 min at room temperature, 10 uL of the reaction mixture was transferred to the HTRF assay plate and incubated for 45 min at room temperature with shaking. Plate was read using Pherastar in HTRF mode (excitation 337 nm, emission 665 & 620 nm). The IC50 values (half maximal inhibitory concentration values) were subsequently determined using a sigmoidal dose-response curve (variable slope) in GraphPad Prism® 5 software.

[2] = target: T2, ERK1 (Homo sapiens, UniProt P27361); assay: ERK1 HTRF (biochemical) assay
T2 construct: purchased Jubilant Biosys
T2 sequence (P27361 whole entry): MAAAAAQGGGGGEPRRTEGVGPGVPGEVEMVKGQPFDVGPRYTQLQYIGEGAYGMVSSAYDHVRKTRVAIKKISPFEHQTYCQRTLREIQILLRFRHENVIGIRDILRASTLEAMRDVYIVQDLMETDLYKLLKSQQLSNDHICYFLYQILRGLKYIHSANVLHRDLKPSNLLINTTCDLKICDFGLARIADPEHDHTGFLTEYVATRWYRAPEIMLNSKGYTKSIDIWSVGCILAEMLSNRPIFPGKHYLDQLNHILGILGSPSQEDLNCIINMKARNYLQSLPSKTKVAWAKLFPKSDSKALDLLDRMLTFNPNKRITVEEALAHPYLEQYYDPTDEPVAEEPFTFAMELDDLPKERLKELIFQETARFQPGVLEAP
Experimental: as §1, §2

[3] = test system: HCT116 (colorectal carcinoma, K Ras G13D) cells; assay: Cell proliferation (Alamar Blue) assay, HCT116; assay type: cell-based, human; details: Homo sapiens, HCT-116, 72 h
Experimental: (§3) Cell Proliferation (Alamar Blue) Assay
(§4) HT-29 (colorectal carcinoma, B-RafV600E), HCT116 (colorectal carcinoma, K Ras G13D), A375 (melanoma, B-RafV600E) and SK-Mel2 (melanoma, NRAS Q61R) cells (obtained from ATCC, USA) were seeded (5000 cells/well) in 96-well tissue culture plate and incubated at 37° C./5% CO2 for 16-24 hours. The cells were then treated with compounds, at concentrations typically from 0.0005 to 10 uM prepared in 3-fold serial dilutions. The plates were then incubated for 72 h at 37° C./5% CO2 in a moist environment. Then Alamar Blue™ reagent (final concentration 1×) was added to each well and incubated for 1-3 h at 37° C./5% CO2. The plates were read on fluorescence reader at 540 nm excitation and 590 nm emission wavelengths. The IC50 values were subsequently determined using a sigmoidal dose-response curve (variable slope) using GraphPad Prism® 5 software. Compounds of the present disclosure caused inhibition of HT-29, HCT116, A375 and SK-Mel2 cell proliferation as determined in these assays.

[4] = test system: phosphorylation of RSK1(S380) (the downstream target of ERK1/2); assay: Mechanistic (phospho-RSK1(S380) ELISA) assay in HT-29 cells; assay type: cell-based, human; details: Homo sapiens, HT-29, 2 h, 2 h treatment, read-out: Mechanistic Cell Assay RSK1 Phos HT29 IC50
Experimental: Mechanistic (Phospho-RSK1(5380) ELISA) Assay
HT-29 cells (colorectal carcinoma, B-RafV600E); obtained from ATCC, USA) were seeded (60,000 cells/well) in a 96-well plate and incubated at 37° C./5% CO2 overnight and then treated with desired compound dilutions for 2 h. Medium was removed and cells were rinsed once with ice-cold 1×PBS, then 0.070 mL ice-cold 1× cell lysis buffer containing 1 mM PMSF was added to each well and the plate was incubated on a shaker for 2 h and 30 min at 4° C. The plate was then centrifuged for 20 min (×4000 rpm) at 4° C. and the supernatant was transferred to a new plate. Cell lysates were diluted with sample diluent at a ratio of 1:1. The ELISA was then carried out following the manufacturer's protocol (PathScan® phospho-RSK1(Ser380) Sandwich ELISA Kit, Cell Signaling Technologies). The plate was read at 450 nm within 30 min after adding STOP solution. The IC50 values were subsequently determined using a sigmoidal dose-response curve (variable slope) in GraphPad Prism® 5 software. Compounds of the present disclosure inhibited phosphorylation of RSK1(5380) (the downstream target of ERK1/2) as determined in this assay.

[5] = test system: HT-29 (colorectal carcinoma, B-RafV600E) cells; assay: Cell proliferation (Alamar Blue) assay, HT-29; assay type: cell-based, human; details: Homo sapiens, HT-29, 72 h, read-out: Cell Proliferation Assay HT29 IC50
Experimental: as §3, §4

T1 sequence (P28482 whole entry): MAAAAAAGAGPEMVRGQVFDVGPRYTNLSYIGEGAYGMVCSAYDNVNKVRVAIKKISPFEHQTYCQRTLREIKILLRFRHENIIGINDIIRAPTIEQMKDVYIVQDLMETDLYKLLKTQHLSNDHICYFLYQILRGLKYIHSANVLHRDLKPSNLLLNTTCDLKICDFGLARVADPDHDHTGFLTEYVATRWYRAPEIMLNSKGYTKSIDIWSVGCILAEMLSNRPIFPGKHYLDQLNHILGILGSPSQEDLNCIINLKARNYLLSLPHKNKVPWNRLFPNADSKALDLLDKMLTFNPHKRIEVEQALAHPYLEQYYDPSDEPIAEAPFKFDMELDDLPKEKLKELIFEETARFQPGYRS

pIC50 [1]	pIC50 [2]	pIC50 [3]	pIC50 [4]	pIC50 [5]	Compound
≥ 7.30	≥ 7.30	< 5.60	6.60 to 7.00	< 5.60	CC[C@@H](CO)Nc1cc(-n2cnc(C(=O)NC(CO)c3cccc(Cl)c3)c2)ccn1 (stereo partly drawn) [Compound 105, N-(1-(3-chlorophenyl)-2-hydroxyethyl)-1-(2-(((S)-1-hydroxybutan-2-yl)-amino)pyridin-4-yl)-1H-imidazole-4-carboxamide]
≥ 7.30	≥ 7.30	< 5.60	5.60 to 6.30		Cc1cnc(NC(C)C2CCOCC2)nc1-n1cnc(C(=O)N[C@H](CO)c2cccc(Cl)c2)c1 (stereo partly shown) [Example 239]
6.30 to 7.00	5.60 to 6.30				Cc1cnc(Nc2ccc(Oc3ccccc3)cc2)nc1-n1cnc(C(=O)N[C@H](CO)c2cccc(Cl)c2)c1 [Example 250, N-(1-(3-chlorophenyl)-2-hydroxyethyl)-1-(5-methyl-2-((4-phenoxyphenyl)-amino)pyrimidin-4-yl)-1H-imidazole-4-carboxamide]
≥ 7.30	≥ 7.30	≥ 7.00	≥ 7.00	≥ 7.00	Cc1cnc(N[C@H]2CCOC2)nc1-n1cnc(C(=O)N[C@H](CN)c2cc(F)cc(Cl)c2)c1 [Example 282, N-(2-amino-1-(3-chloro-5-fluorophenyl)ethyl)-1-(5-methyl-2-(((S)-tetrahydrofuran-3-yl)amino)pyrimidin-4-yl)-1H-imidazole-4-carboxamide]
